Laboratory results reported in US20210186972A1, “FORMULATIONS AND METHODS FOR THE PREVENTION AND TREATMENT OF TUMOR METASTASIS AND TUMORIGENESIS” (THE UNITED STATES OF AMERICA, AS REPRESENTED BY THE …, priority 2018, published 2021).

Legend:
eEF1A = experiment: Cellular thermal shift assay (CETSA); format: binding; conditions: PC3M cell lysate
Text: DMSO is the top panel and metarrestin is the bottom panel.

in vivo = experiment: in vivo; parameters: species or system BALB/c mice; conditions: mouse
Procedure: (§1) Metarrestin was administered to female BALB/c mice, n=3 in the single dose and the repeat doses were administered to SCID-beige mice, n=3 per time point. The repeat dose study mice were given daily intraperitoneal injections for 4 weeks, with concentration measured 24 h after the last dose. Metarrestin was formulated in 5% NMP+20% PEG400+75% (10% […] in water).
BALB/c mice, 17-19 g, female, n=66, were purchased and had free access to food and water. They were dosed with metarrestin at 5 or 25 mg/kg (10 ml/kg) in 5% NMP [NMP (Sigma-Aldrich cat #270458), 20% PEG400 (Sigma-Aldrich cat #202398), and 75% 10% HPBCD (Sigma-Aldrich cat #H107)] via lower left abdominal quadrant injection (n=33 each dose). The animals were anesthetized with isoflurane and restrained manually at the designated time points. Approximately 120 μL of blood were taken from the animals into K2EDTA tubes via retro-orbital puncture. Blood samples were placed on ice and centrifuged (2,000 g, 5 min under 4° C.) to obtain plasma samples within 15 minutes. An aliquot of 20 μL plasma sample was protein-precipitated with 200 μL acetonitrile that contained 50 ng/mL IS (dexamethasone). […] Twenty-four hours after the final dose, the concentrations of metarrestin in plasma were analyzed.

[1] = Repeat dose plasma pharmacokinetics, IP; format: in vivo, SCID Beige mice; conditions: for concentration at 24 h: SCID Beige, mouse, plasma, intraperitoneal
Procedure: as §1
BALB/c mice, 17-19 g, female, n=66, were purchased and had free access to food and water. They were dosed with metarrestin at 5 or 25 mg/kg (10 ml/kg) in 5% NMP [NMP (Sigma-Aldrich cat #270458), 20% PEG400 (Sigma-Aldrich cat #202398), and 75% 10% HPBCD (Sigma-Aldrich cat #H107)] via lower left abdominal quadrant injection (n=33 each dose). The animals were anesthetized with isoflurane and restrained manually at the designated time points. Approximately 120 μL of blood were taken from the animals into K2EDTA tubes via retro-orbital puncture. Blood samples were placed on ice and centrifuged (2,000 g, 5 min under 4° C.) to obtain plasma samples within 15 minutes. An aliquot of 20 μL plasma sample was protein-precipitated with 200 μL acetonitrile that contained 50 ng/mL IS (dexamethasone). The mixture was vortexed for 2 min, centrifuged at 14,000 rpm for 5 min, and an aliquot of 30 μL supernatant was diluted with 70 μL MeOH:H2O (1:1, v/v), then vortexed for 2 min. A 2 μL aliquot of supernatant was injected into UPLC-MS/MS. Analysis of samples was done with an LC-MS/MS-02 (API4000), Waters-BEH-C18 (2.1×50 mm, 1.7 μm) column, flow rate 0.6 mL/min, with a mobile phase consisting of solvent A (H2O— 0.025% FA-1 mM NH4OAc) and solvent B (MeOH— 0.025% FA-1 mM NH4OAc). The gradient was 10, 90, 90, 10% B at 0.30, 0.60, 1.20, 1.21, 1.80 (stop) min. Retention times for metarrestin and dexamethasone were 1.09 and 1.08 min, respectively. Calibration curves were established with known serially diluted concentrations of metarrestin before analysis. SCID Beige mice were purchased and dosed with metarrestin at 5 and 25 mg/kg, once daily at 24 hour intervals for 4 weeks as above. Twenty-four hours after the final dose, the concentrations of metarrestin in plasma were analyzed.

NSG PANC1 mice = experiment: Orthotopic pancreatic cancer metastasis model, daily IP treatment; format: in vivo
Procedure: Because pancreatic cancer patients suffer particular high mortality from metastasis, the in vivo efficacy of metarrestin against metastasis in an orthotopic pancreatic cancer metastasis model was evaluated. The 3D PANC1 cell spheres model, deployed in NOD/interleukin 2 receptor common gamma chain (Il2rγ)^null (NSG) PANC-1 mice (see Suemizu et al., “Identification of a key molecular regulator of liver metastasis in human pancreatic carcinoma using a novel quantitative model of metastasis in NOD/SCID/gammacnull (NOG) mice.” Int. J. Oncol., (31): 741-51 (2007), incorporated herein in its entirety), recapitulates human cancer progression and metastatic phenotype of the disease without the limitations of early death due to complications of local invasion, such as gastric outlet obstruction or impingement of the common bile duct. Sixty thousand 3D luciferase-expressing PANC1-luc cell spheres were injected orthotopically into the pancreas of NSG mice. […] By 8 weeks, macrometastasis on the liver surface were visible.
Four weeks after inoculation, mice were treated once daily with metarrestin (5 mg/kg or 25 mg/kg) or vehicle via IP injections, continuing for six weeks. […] The treatment was well-tolerated, and animals maintained their body weight (FIG. 11).
To determine whether PNCs in treated animals were impacted by metarrestin, PNC prevalence in primary tumors and metastatic lesions from control and metarrestin-treated animals (25 mg/kg) were examined 12 weeks after tumor inoculation. […] PNC prevalence in non-treated animals was higher in these groups of tumors and metastatic lesions than in those harvested at an earlier time (FIG. 6) or in cultured PANC1 cells (FIG. 2), consistent with previous findings that late-stage cancers have higher PNC prevalence.
Pancreatic cancer model: 60,000 luciferase-tagged PANC1 spheres were injected into the pancreas of Nod/IL2gamma (null) mice (obtained from NCI Mouse Repository, Frederick, Md.; on ACUC-approved animal protocol SB-211-2). At 4 weeks after inoculation, mice were treated once daily with metarrestin (5 mg/kg or 25 mg/kg) or vehicle via IP injections, which extended out for 6 more weeks. Mice were injected with luciferin 5 minutes before being sacrificed by CO2 euthanasia. Organs were then individually dissected, subjected to quantitative xenogene imaging, and fixed with 4% non-buffered formaldehyde. Impact of metastatic burden was calculated and graphed as liver and lung/primary tumor ratios based on a five-minute photon count for the liver normalized to liver weight (g), which was then compared to the average photon count per weight (g) of the primary pancreatic tumor of the same animal. This calculation corrects for variations in luciferin injection, mouse heart rate, and perfusion. For overexpression of eEF1A2, 6*10^4 PANC1 3D spheres transduced with eEF1A2 (eEF1A2 OE) were injected into the tail of the pancreas of NSG mice. Mice of both groups were harvested at 6 weeks after implantation and subjected to necropsy. Liver metastasis/mm^2 was calculated as the sum of the […] of the individual metastases. Tumor volume (mm^3) was calculated as (L×W2), where L=length (mm) and W=width (mm). Animal survival was measured from the first day of treatment until death. […]

[2] = 25 mg/kg IP once daily for 4 weeks, 24 h after the final dose
[3] = 5 or 25 mg/kg IP once daily for six weeks

**Q.** Which “Aggregation temperature of eEF1A” value (eEF1A) does the source give for `N=c1c2c(-c3ccccc3)c(-c3ccccc3)n(Cc3ccccc3)c2ncn1[C@H]1CC[C@H](O)CC1` [metarrestin] here?
**A.** increase in the aggregation temperature of eEF1A

**Q.** And the half-life (in vivo; female, BALB/c, ip, 25 mg/kg)?
**A.** 4.6 to 5.5 h

**Q.** And the Bioavailability (in vivo)?
**A.** high bioavailability

**Q.** What about the Plasma concentration [1, 2] of the same compound?
**A.** 1460 nM

**Q.** What about the concentration at 24 h ([1]; 5 mg/kg IP once daily for 4 weeks, 24 h after the final dose) of the same compound?
**A.** 48.4 ng/mL

**Q.** And the concentration at 24 h [1, 2]?
**A.** 692 ng/mL

**Q.** And the Risk of accumulation ([1]; single and multiple daily IP dosing, 5 and 25 mg/kg)?
**A.** predicted moderate risk of accumulation

**Q.** What about the “Metastatic burden in liver” value (NSG PANC1 mice; 25 mg/kg IP once daily for six weeks, vs vehicle, p<0.01) of the same compound?
**A.** decrease in metastatic burden

**Q.** What about the “Metastatic burden in lung” value (NSG PANC1 mice; 25 mg/kg IP once daily for six weeks, vs vehicle, p<0.05) of the same compound?
**A.** decrease in metastatic burden

**Q.** And the “PNC prevalence in metastatic and primary tumor tissues” value (NSG PANC1 mice; 25 mg/kg, 12 weeks after tumor inoculation, p<0.01)?
**A.** significant reduction of PNC prevalence

**Q.** What about the Primary tumor weight (NSG PANC1 mice; [3]) of the same compound?
**A.** not significantly changed

**Q.** What about the “Tolerability, body weight” value (NSG PANC1 mice; [3]) of the same compound?
**A.** well-tolerated
